According to patent publication US8053418B2, “Anti-penicillin resistant pneumococci agent and novel 16-membered macrolide derivative” (Microbial Chemistry Research Foundation, priority 2005, dated 2011):
In brackets after ≈: the same amount, converted by molar mass. Where two headings read alike, the source gives them in different places.

Legend:
Format in all cases: cell-based
[1] = system: Streptococcus pneumoniae IMC B-1232 (PRSP); test: Antimicrobial activity test (MIC), clinical isolate IMC B-1232
Procedure: (§1) Using Streptococcus pneumoniae that include clinical isolates of PRSP, the antimicrobial activity of each of the prepared anti-PRSP agents was measured in accordance with the “determination method of minimum inhibitory concentration of drug against bacteria” of Japanese Society of Chemotherapy (for re-revised version, see Chemotherapy 29; 76, 1981).
(§2) 11 test strains of Streptococcus pneumoniae including IMC B-0919 are all clinical isolates, of which 2 strains, IMC B-0921 and IMC B-1229, are classified into penicillin susceptible Streptococcus pneumoniae (PSSP) and the remaining 9 strains are classified into penicillin-resistant Streptococcus pneumoniae (PRSP) (according to NCCLS standards).

[2] = system: Streptococcus pneumoniae IMC B-0922 (PRSP); test: Antimicrobial activity test (MIC), clinical isolate IMC B-0922
Procedure: as §1, §2

[3] = system: Streptococcus pneumoniae IMC B-1231 (PRSP); test: Antimicrobial activity test (MIC), clinical isolate IMC B-1231
Procedure: as §1, §2

[4] = system: Streptococcus pneumoniae IMC B-1234 (PRSP); test: Antimicrobial activity test (MIC), clinical isolate IMC B-1234
Procedure: as §1, §2

[5] = system: Streptococcus pneumoniae IMC B-1235 (PRSP); test: Antimicrobial activity test (MIC), clinical isolate IMC B-1235
Procedure: as §1, §2

[6] = system: Streptococcus pneumoniae IMC B-1229 (PSSP); test: Antimicrobial activity test (MIC), clinical isolate IMC B-1229
Procedure: as §1, §2

[7] = system: Streptococcus pneumoniae IMC B-0919 (PRSP); test: Antimicrobial activity test (MIC), clinical isolate IMC B-0919
Procedure: as §1, §2

[8] = system: Streptococcus pneumoniae IMC B-0921 (PSSP); test: Antimicrobial activity test (MIC), clinical isolate IMC B-0921
Procedure: as §1, §2

[9] = system: Streptococcus pneumoniae IMC B-1233 (PRSP); test: Antimicrobial activity test (MIC), clinical isolate IMC B-1233
Procedure: as §1, §2

[10] = system: Streptococcus pneumoniae IMC B-0920 (PRSP); test: Antimicrobial activity test (MIC), clinical isolate IMC B-0920
Procedure: as §1, §2

[11] = system: Streptococcus pneumoniae IMC B-1236 (PRSP); test: Antimicrobial activity test (MIC), clinical isolate IMC B-1236
Procedure: as §1, §2

[12] = PRSP clinical isolate IMC B-1232
[13] = PRSP clinical isolate IMC B-0922
[14] = PRSP clinical isolate IMC B-1231
[15] = PRSP clinical isolate IMC B-1234
[16] = PRSP clinical isolate IMC B-1235
[17] = PSSP clinical isolate IMC B-1229
[18] = PRSP clinical isolate IMC B-0919
[19] = PSSP clinical isolate IMC B-0921
[20] = PRSP clinical isolate IMC B-1233
[21] = PRSP clinical isolate IMC B-0920
[22] = PRSP clinical isolate IMC B-1236
[23] = Streptococcus pneumoniae IMC B-1232, PRSP
[24] = Streptococcus pneumoniae IMC B-0922, PRSP
[25] = Streptococcus pneumoniae IMC B-1231, PRSP
[26] = Streptococcus pneumoniae IMC B-1234, PRSP
[27] = Streptococcus pneumoniae IMC B-1235, PRSP
[28] = Streptococcus pneumoniae IMC B-1229, PSSP
[29] = Streptococcus pneumoniae IMC B-0919, PRSP
[30] = Streptococcus pneumoniae IMC B-0921, PSSP
[31] = Streptococcus pneumoniae IMC B-1233, PRSP
[32] = Streptococcus pneumoniae IMC B-0920, PRSP
[33] = Streptococcus pneumoniae IMC B-1236, PRSP

MIC [1, 23] [µg/mL] | MIC [2, 24] [µg/mL] | MIC [3, 25] [µg/mL] | MIC [4, 26] [µg/mL] | MIC [5, 27] [µg/mL] | MIC [6, 28] [µg/mL] | MIC [7, 29] [µg/mL] | MIC [8, 30] [µg/mL] | MIC [9, 31] [µg/mL] | SMILES | MIC [1, 12] [µg/mL] | MIC [2, 13] [µg/mL] | MIC [3, 14] [µg/mL] | MIC [4, 15] [µg/mL] | MIC [5, 16] [µg/mL] | MIC [6, 17] [µg/mL] | MIC [7, 18] [µg/mL] | MIC [8, 19] [µg/mL] | MIC [9, 20] [µg/mL] | MIC [10, 21] [µg/mL] | MIC [11, 22] [µg/mL] | other results
 |  |  |  |  |  |  |  |  | CCC1OC(=O)CCC(C)C(OC2OC(C)CC(N(C)C)C2O)C(CC=O)CC(C)C(=O)C=CC(C)=CC1CNC(C)=O (stereo not shown) [MKT-3201] | 0.39 (≈ 0.643 µM) | 0.39 (≈ 0.643 µM) | 1.56 (≈ 2.57 µM) | 0.39 (≈ 0.643 µM) | 12.5 (≈ 20.6 µM) | 0.2 (≈ 0.33 µM) | 0.78 (≈ 1.29 µM) | 0.2 (≈ 0.33 µM) | 0.39 (≈ 0.643 µM) | 0.78 (≈ 1.29 µM) | 50 (≈ 82.4 µM) | 
0.20 (≈ 0.342 µM) | 0.20 (≈ 0.342 µM) | 25 (≈ 42.8 µM) | 0.20 (≈ 0.342 µM) | 50 (≈ 85.6 µM) | 0.20 (≈ 0.342 µM) | 0.20 (≈ 0.342 µM) | 0.10 (≈ 0.171 µM) | 0.20 (≈ 0.342 µM) | CCC1OC(=O)CCC(C)C(OC2OC(C)CC(N(C)C)C2O)C(CC=O)CC(C)C(=O)C=CC(C)=CC1CCl (stereo not shown) [MKT-3007] |  |  |  |  |  |  |  |  |  |  |  | MIC [10, 32]: 0.20 µg/mL (≈ 0.342 µM); MIC [11, 33]: 50 µg/mL (≈ 85.6 µM)
 |  |  |  |  |  |  |  |  | CCC1OC(=O)CCC(C)C(OC2OC(C)CC(N(C)C)C2O)C(CC=O)CC(C)C(=O)C=CC(C)=CC1CI (stereo not shown) [MKT-3001] | 0.1 (≈ 0.148 µM) | 0.2 (≈ 0.296 µM) | >50 | 0.2 (≈ 0.296 µM) | 50 (≈ 74 µM) | 0.39 (≈ 0.577 µM) | 0.39 (≈ 0.577 µM) | 0.2 (≈ 0.296 µM) | 0.2 (≈ 0.296 µM) | 0.2 (≈ 0.296 µM) | 25 (≈ 37 µM) | 
 |  |  |  |  |  |  |  |  | CCC1OC(=O)CCC(C)C(OC2OC(C)CC(N(C)C)C2O)C(CC=O)CC(C)C(=O)C=CC(C)=CC1CN(C)C (stereo not shown) [MKT-3101] | 0.2 (≈ 0.337 µM) | 0.39 (≈ 0.658 µM) | 12.5 (≈ 21.1 µM) | 0.2 (≈ 0.337 µM) | 25 (≈ 42.2 µM) | 0.2 (≈ 0.337 µM) | 0.78 (≈ 1.32 µM) | 0.2 (≈ 0.337 µM) | 0.2 (≈ 0.337 µM) | 0.78 (≈ 1.32 µM) | 50 (≈ 84.3 µM) | 
1.56 (≈ 2.3 µM) | 1.56 (≈ 2.3 µM) | >50 | 0.39 (≈ 0.576 µM) | >50 | 0.39 (≈ 0.576 µM) | 0.78 (≈ 1.15 µM) | 0.20 (≈ 0.295 µM) | 0.78 (≈ 1.15 µM) | CCC1OC(=O)CCC(C)C(OC2OC(C)CC(N(C)C)C2O)C(CC=O)CC(C)C(=O)C=CC(C)=CC1CN1CCC(CCO)CC1 (stereo not shown) [MKT-6113] |  |  |  |  |  |  |  |  |  |  |  | MIC [10, 32]: 1.56 µg/mL (≈ 2.3 µM); MIC [11, 33]: >50 µg/mL
 |  |  |  |  |  |  |  |  | CC[C@H]1OC(=O)C[C@@H](O)[C@H](C)[C@@H](O[C@@H]2O[C@H](C)[C@@H](O[C@H]3C[C@@](C)(O)[C@@H](O)[C@H](C)O3)[C@H](N(C)C)[C@H]2O)[C@@H](CC=O)C[C@@H](C)C(=O)/C=C/C(C)=C/[C@@H]1CO[C@@H]1O[C@H](C)[C@@H](O)[C@@H](OC)[C@H]1OC [tylosin, reference compound] |  |  |  |  |  |  |  |  |  |  |  | MIC ([1]; Streptococcus pneumoniae IMC B-1232, PRSP, read-out: MIC): 0.39 µg/mL (≈ 0.426 µM); MIC ([2]; Streptococcus pneumoniae IMC B-0922, PRSP, read-out: MIC): 0.39 µg/mL (≈ 0.426 µM); MIC ([3]; Streptococcus pneumoniae IMC B-1231, PRSP, read-out: MIC): 100 µg/mL (≈ 109 µM); MIC ([4]; Streptococcus pneumoniae IMC B-1234, PRSP, read-out: MIC): 0.39 µg/mL (≈ 0.426 µM); MIC ([5]; Streptococcus pneumoniae IMC B-1235, PRSP, read-out: MIC): > 100 µg/mL; MIC ([6]; Streptococcus pneumoniae IMC B-1229, PSSP, read-out: MIC): 0.39 µg/mL (≈ 0.426 µM); MIC ([7]; Streptococcus pneumoniae IMC B-0919, PRSP, read-out: MIC): 0.39 µg/mL (≈ 0.426 µM); MIC ([8]; Streptococcus pneumoniae IMC B-0921, PSSP, read-out: MIC): 0.39 µg/mL (≈ 0.426 µM); MIC ([9]; Streptococcus pneumoniae IMC B-1233, PRSP, read-out: MIC): 0.78 µg/mL (≈ 0.851 µM); MIC ([10]; Streptococcus pneumoniae IMC B-0920, PRSP, read-out: MIC): 0.39 µg/mL (≈ 0.426 µM); MIC ([11]; Streptococcus pneumoniae IMC B-1236, PRSP, read-out: MIC): > 100 µg/mL
0.1 (≈ 0.137 µM) | 0.2 (≈ 0.274 µM) | 50 (≈ 68.6 µM) | 0.1 (≈ 0.137 µM) | 6.25 (≈ 8.57 µM) | 0.2 (≈ 0.274 µM) | 0.1 (≈ 0.137 µM) | 0.1 (≈ 0.137 µM) | 0.1 (≈ 0.137 µM) | CCC1OC(=O)CCC(C)C(OC2OC(C)CC(N(C)C)C2O)C(CC=O)CC(C)C(=O)C=CC(C)=CC1COC(=O)NCc1ccc(OC)cc1 (stereo not shown) [MKT-1011] | 0.1 (≈ 0.137 µM) | 0.2 (≈ 0.274 µM) | 50 (≈ 68.6 µM) | 0.1 (≈ 0.137 µM) | 6.25 (≈ 8.57 µM) | 0.2 (≈ 0.274 µM) | 0.1 (≈ 0.137 µM) | 0.1 (≈ 0.137 µM) | 0.1 (≈ 0.137 µM) | 0.1 (≈ 0.137 µM) | 1.56 (≈ 2.14 µM) | MIC [10, 32]: 0.1 µg/mL (≈ 0.137 µM); MIC [11, 33]: 1.56 µg/mL (≈ 2.14 µM)
